Laboratory results: patent US7884127B2, “Inhibitors of cyclin dependent kinases and their use” (Pirimal Life Sciences Ltd., priority 2002, dated 2011)

Key:
human Cdk-2/E = molecular target: T1, human Cdk-2/E (Homo sapiens, UniProt P24941); assay: Cdk2/Cyclin E kinase assay; assay type: biochemical; details: phosphorylation of GST-Rb, 32P-ATP filter plate, 30 min at 30° C.
T1 construct: made in house; host or cells: Sf9 insect cells (baculovirus)
Description: (§1) Cdk4/Cyclin D1 Kinase Assay and Cdk2/Cyclin E Kinase Assay
(§2) The assays measure phosphorylation of retinoblastoma protein (Rb) by Cdk4 or Cdk2 upon activation by cyclin D1 or cyclin E, respectively, through the transfer of (γ^32P)-phosphate from γ^32P-ATP in a 96-well filter plate assay.
Cdk4 or Cdk2 was co-expressed with cyclin D1 or cyclin E, respectively, by a baculovirus expression system in insect cells. For this, 1×10^7 Sf9 cells were coinfected with baculoviruses containing human Cdk-4 or 2 and cyclin D1 or E genes and after 72 hours cells were lysed in 500 μl of a lysis buffer (50 mM HEPES (pH 7.5), 10 mM MgCl2, 1 mM DTT, 5 μg/ml of aprotinin, 5 μg/ml of leupeptin, 0.1 mM NaF, 0.2 mM phenylmethylsulfonyl fluoride (PMSF), and sodium orthovanadate). Centrifuged lysate was purified on a GST-sepharose column. Purity of the proteins was checked by SDS-PAGE followed by western blots using specific antibodies (Santacruz Biotec, USA) to Cdk4 or Cdk2. […]
(§3) Quantitation was by scintillation detection of (^32P)-GST-Rb in 96-well filter plates using Top Count scintillation 96-well counter (Packard, USA).
The Cdk 4 or Cdk 2 enzyme assay was run in 96-well format using Millipore Multiscreen filtration plates. […] The plate was counted in a Packard Top Count Scintillation Counter for 10 min. […]

human Cdk-4/D1 = molecular target: T2, human Cdk-4/D1 (Homo sapiens, UniProt P11802); assay: Cdk4/Cyclin D1 kinase assay; assay type: biochemical; details: for IC50: phosphorylation of GST-Rb, 32P-ATP filter plate, 30 min at 30° C.; for Ratio of IC50 Cdk2/E:Cdk4/D1: selectivity, Cdk2/E IC50 over Cdk4/D1 IC50
T2 construct: made in house; host or cells: Sf9 insect cells (baculovirus)
Description: as §1, §2
Cdk4 or Cdk2 was co-expressed with cyclin D1 or cyclin E, respectively, by a baculovirus expression system in insect cells. For this, 1×10^7 Sf9 cells were coinfected with baculoviruses containing human Cdk-4 or 2 and cyclin D1 or E genes and after 72 hours cells were lysed in 500 μl of a lysis buffer (50 mM HEPES (pH 7.5), 10 mM MgCl2, 1 mM DTT, 5 μg/ml of aprotinin, 5 μg/ml of leupeptin, 0.1 mM NaF, 0.2 mM phenylmethylsulfonyl fluoride (PMSF), and sodium orthovanadate). Centrifuged lysate was purified on a GST-sepharose column. Purity of the proteins was checked by SDS-PAGE followed by western blots using specific antibodies (Santacruz Biotec, USA) to Cdk4 or Cdk2.
GST-retinoblastoma (Rb) (aa 776-928) fusion protein is expressed in the bacteria E. coli and purified by GSH-Sepharose affinity chromatography. The GST-Rb bound to these beads served as the substrate in the assay.
as §3
The Cdk 4 or Cdk 2 enzyme assay was run in 96-well format using Millipore Multiscreen filtration plates. All assay steps took place in a single filter plate (Unifilter plates, Packard, USA). The filtration wells were pre-wet with kinase buffer (100 μl/well) and the solution was then removed by the application of vacuum, with the filter plate on a vacuum manifold and the vacuum on. 50 μl of GST-Rb bound to GSH-Sepharose beads in kinase buffer (0.5 μg GST-Rb/50 μl) was added to each well and vacuum was applied to removed the buffer. A further 25 μl of a reaction mix containing ATP (cold+hot) and phosphatase inhibitors diluted in kinase buffer were added to each well, followed by the addition of test compound (4× final concentration in kinase buffer) or kinase buffer (control) in an additional 25 μl volume. Finally 50 μl (100 ng) of human Cdk-4/D1 or Cdk-2/E enzyme in kinase buffer was added to each well to initiate the reaction. The reaction was incubated for 30 min at 30° C. After the reaction was complete, vacuum was applied and the plate was washed with the wash buffer (TNEN buffer) three times. The filter plate was air-dried and placed in a Multiscreen adapter plate. To each well, 30 μl Packard Microscint-O cocktail was added and the plate was covered with a Top-Seal A film. The plate was counted in a Packard Top Count Scintillation Counter for 10 min. […]

T2 sequence (P11802 whole entry): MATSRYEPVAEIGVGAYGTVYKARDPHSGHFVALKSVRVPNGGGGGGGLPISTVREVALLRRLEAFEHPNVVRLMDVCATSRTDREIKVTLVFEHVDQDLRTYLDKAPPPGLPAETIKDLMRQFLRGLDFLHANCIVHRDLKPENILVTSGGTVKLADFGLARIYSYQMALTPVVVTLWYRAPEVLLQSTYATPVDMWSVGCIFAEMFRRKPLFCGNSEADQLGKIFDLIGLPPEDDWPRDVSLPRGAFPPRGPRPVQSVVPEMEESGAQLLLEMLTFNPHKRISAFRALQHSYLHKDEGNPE
T2 sequence (P24385 whole entry partner): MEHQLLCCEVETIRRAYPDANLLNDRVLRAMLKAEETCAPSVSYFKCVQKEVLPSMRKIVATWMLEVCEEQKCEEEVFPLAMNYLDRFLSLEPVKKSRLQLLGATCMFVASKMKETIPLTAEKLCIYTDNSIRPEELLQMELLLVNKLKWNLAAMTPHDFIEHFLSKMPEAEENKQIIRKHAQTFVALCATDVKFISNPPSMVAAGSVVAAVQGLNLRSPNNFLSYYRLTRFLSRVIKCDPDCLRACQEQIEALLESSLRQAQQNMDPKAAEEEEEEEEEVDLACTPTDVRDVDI

Row | IC50 (human Cdk-2/E) [µM] | IC50 (human Cdk-4/D1) [nM] | Ratio of IC50 Cdk2/E:Cdk4/D1 (human Cdk-4/D1) | melting point [°C] | Compound
1 | 6 | 80 | 75.0 |  | COc1ccc(Br)c(-c2cc(=O)c3c(O)cc(O)c([C@@H]4CCN(C)[C@H]4CO)c3o2)c1 (single isomer, unassigned) [Example 36 (Compound A), (+)-trans-2-(2-Bromo-5-methoxy-phenyl)-5,7-dihydroxy-8-(2-hydroxymethyl-1-methyl-pyrrolidin-3-yl)-chromen-4-one]
2 | 8.75 | 280 | 31.2 | 242 to 244 | CN1CC[C@@H](c2c(O)cc(O)c3c(=O)cc(-c4c(F)cccc4F)oc23)[C@@H]1CO (single isomer, unassigned) [Example 80, (+)-trans-2-(2,6-Difluoro-phenyl)-5,7-dihydroxy-8-(2-hydroxymethyl-1-methyl-pyrrolidin-3-yl)-chromen-4-one]
